Source: US7566713B2, “Immuno inhibitory heterocyclic compounds” (Medigene Limited, priority 2004, dated 2009)
pEC50: −log10 of the molar value.

Target: T1, CD80-CD28 interaction (Homo sapiens, UniProt P33681)
T1 sequence (P33681 35-242 limits assumed): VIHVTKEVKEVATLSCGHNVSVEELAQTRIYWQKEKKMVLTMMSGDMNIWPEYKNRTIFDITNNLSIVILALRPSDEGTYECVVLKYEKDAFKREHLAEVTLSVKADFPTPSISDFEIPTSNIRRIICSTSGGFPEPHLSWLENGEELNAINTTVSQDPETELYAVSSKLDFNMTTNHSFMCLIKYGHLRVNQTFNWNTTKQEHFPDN
Experiment: cell free Homogenous Time Resolved Fluorescence (TRFret) assay, inhibition of the CD80-CD28 interaction
Assay type: binding
Conditions: HTRF assay; concentration series 100 μM-1.7 nM; 4 hours at room temperature
Experimental: The examples described above were tested in a cell free Homogenous Time Resolved Fluorescence (TRFret) assay to determine their activity as inhibitors of the CD80-CD28 interaction.
In the assay, europium and allophycocyanin (APC) are associated with CD28 and CD80 indirectly (through antibody linkers) to form a complex, which brings the europium and APC into close proximity to generate a signal. The complex comprises the following six proteins: fluorescent label 1, linker antibody 1, CD28 fusion protein, CD80 fusion protein, linker antibody 2, and fluorescent label 2. The table below describes these reagents in greater detail.
On formation of the complex, europium and APC are brought into proximity and a signal is generated.
Non-specific interaction was measured by substituting a mouse Fab fragment (C215) for the CD80 mouse Fab fragment fusion protein (1.9 μg/ml). The assay was carried out in black 384 well plates in a final volume of 30 μl. Assay buffer: 50 mM Tris-HCl, 150 mM NaCl pH7.8, containing 0.1% BSA (w/v) added just prior to use.
Compounds were added to the above reagents in a concentration series ranging between 100 μM-1.7 nM. The reaction was incubated for 4 hours at room temperature. Dual measurements were made using a Wallac Victor 1420 Multilabel Counter. First measurement: excitation 340 nm, emission 665 nm, delay 50 μs, window time 200 μs. second measurement: excitation 340 nm, emission 615 nm, delay 50 μs, window time 200 μs. Counts were automatically corrected for fluorescence crossover, quenching and background.

Structure (SMILES) | pEC50
CN1C(C)(C)CC(NC(=O)c2ccc(-n3[nH]c4c5c(nnc4c3=O)CCCC5)cc2)CC1(C)C [Example 6, 4-(3-Oxo-1,3,6,7,8,9-hexahydro-pyrazolo[4,3-c]cinnolin-2-yl)-N-(1,2,2,6,6-pentamethyl-piperidin-4-yl)-benzamide] | 7.03
O=C(NCCCNC1CCCCC1)c1ccc(-n2[nH]c3c4c(nnc3c2=O)CCCC4)cc1 [Example 4, N-(3-Cyclohexylamino-propyl)-4-(3-oxo-1 ,3,6,7,8,9-hexahydro-pyrazolo[4,3-c]cinnolin-2-yl)-benzamide] | 7.00

Now from value to compound:

pEC50 | Structure (SMILES)
< 5.00 | O=C(O)c1ccc(-n2[nH]c3c4c(nnc3c2=O)CCCC4)cc1 [Example 1]
7.22 | O=C(NCCCCN1CCCC1)c1ccc(-n2[nH]c3c4c(nnc3c2=O)CCCC4)cc1 [Example 5, 4-(3-Oxo-1,3,6,7,8,9-hexahydro-pyrazolo[4,3-c]cinnolin-2-yl)-N-(4-pyrrolidin-1-yl-butyl)-benzamide]
6.10 | O=C(NCC(F)F)c1ccc(-n2[nH]c3c4c(nnc3c2=O)CCCC4)cc1 [Example 3, N-(2,2-Difluoro-ethyl)-4-(3-oxo-1 ,3,6,7,8,9-hexahydro-pyrazolo[4,3-c]cinnolin-2-yl)-benzamide]
7.20 | CN(C)CCCNC(=O)c1ccc(-n2[nH]c3c4c(nnc3c2=O)CCCC4)cc1 [Example 2, N-(3-Dimethylamino-propyl)-4-(3-oxo-1,3,6,7,8,9-hexahydro-pyrazolo[4,3-c]cinnolin-2-yl)-benzamide]
